Measured values reported in patent US20260165982A1, “COMPOSITIONS AND METHODS FOR DELIVERY OF NUCLEIC ACID THERAPEUTICS” (Entrada Therapeutics, Inc., priority 2022, published 2026).

Tested on: HeLa cells
Test: LNP cellular uptake / eGFP mRNA expression by FACS flow cytometry
Type: cell-based, Human
Settings: eGFP mRNA cargo
Procedure: LNP cellular uptake for the LNP formulations in Table 10 was tested. HeLa cells (Human epithelial cells, ATCC) were seeded at 0.05×10^6 cells per well in 1000 μL DMEM media (Dulbecco's Modified Eagle Medium, GIBCO) containing 10% FBS (GIBCO) and 5% penicillin streptomycin (GIBCO) in 24-well plate. The LNP formulations of Table 10 containing the eGFP mRNA were prepared with a total treatment dose of 250 ng and 1000 ng eGFP mRNA per well in triplicates. The cells were incubated for 24 h at 37° C. Cells were then trypsinized and resuspended in PBS and centrifuged at 200 g for 5 min. The supernatant was removed, and the pelleted cells were redispersed in 500 μL of PBS+2% FBS per well and transferred to FACS tubes and read on a flow cytometry analyzer (BD FACSCanto™ II). The data presented are the mean fluorescent intensity of the signals from each cell treatment analyzed. For transfection efficiency, treated cells were gated for EGFP expression, and the data presented are the percentage of cells analyzed with higher EGFP expression than untreated cells. […] HeLa cells were treated with the various formulations for 24 hours before using fluorescence activated cell sorting (FACS) flow cytometry to quantify eGFP expression in the treated cells. The higher the mean fluorescence intensity, the greater the expression of eGFP, ant therefore, the greater the transfection efficiency.

CCCCCCCCCCCOC(=O)CCCCCN(CCO)CCCCCCCC(=O)OC(CCCCCCCC)CCCCCCCC [SM-102] was tested, and the “efficacy (transfection), findings from all the experiments of Example 2” value was “more efficacious ionizable lipid than D-Lin-MC3-DMA”.
